# In US20110245284A1, “Alkoxy- and Alkylthio-Substituted Anilinopyrimidines” (Bayer CropScience AG, priority 2008, published 2011):
# Read-outs that look alike come from different tables or passages of the source.
# Experiments:
# [1] = logP by HPLC on reversed-phase columns (C 18), method [a], acidic range pH 2.3; type: physicochemical; conditions: pH 2.94, logP (pH2.94)
# [2] = system: Venturia inaequalis; assay: Venturia test (apple) / protective; type: in vivo; conditions: 240 h, active compound concentration 100 ppm, evaluation 10 days after inoculation, read-out: efficacy
# Experimental: After the spray coating has dried on, the plants are inoculated with an aqueous conidia suspension of the apple scab pathogen Venturia inaequalis and then remain for 1 day in an incubation cabinet at about 20° C. and 100% relative atmospheric humidity.
# [3] = system: Alternaria solani; assay: Alternaria test (tomato) / protective; type: in vivo; conditions: 72 h, active compound concentration 100 ppm, evaluation 3 days after inoculation, read-out: efficacy
# Experimental: The plants are then placed in an incubation cabinet at about 20° C. and 100% relative atmospheric humidity.
# [4] = system: Leptosphaeria nodorum; assay: Leptosphaeria nodorum test (wheat) / protective; type: in vivo; conditions: Parastagonospora nodorum, active compound concentration 500 ppm, evaluation 7-9 days after inoculation, read-out: efficacy
# Experimental: Thereafter, the plants are placed in a greenhouse at 90% relative atmospheric humidity and a temperature of 22° C.
# [5] = system: Pyrenophora teres; assay: Pyrenophora teres test (barley) / protective; type: in vivo; conditions: 192 h, active compound concentration 500 ppm, evaluation 8 days after inoculation, read-out: efficacy
# Experimental: After the spray coating has dried on, the plants are sprayed with a spore suspension of Pyrenophora teres. The plants remain in an incubation cabinet for 48 hours at 20° C. and 100% relative atmospheric humidity.
# [6] = system: Fusarium proliferatum; assay: Production of fumonisin FB1 by Fusarium proliferatum (microtitre plates; FB1 by HPLC-MS/MS, growth by OD620); type: cell-based; conditions: Fusarium proliferatum, 144 h
# [7] = logP by LC-MS on reversed-phase columns (C 18), method [b], acidic range pH 2.7; type: physicochemical; conditions: pH 2.7, log p
# Experimental: (§1) The logP values were determined in accordance with EEC Directive 79/831 Annex V.A8 by HPLC (High Performance Liquid Chromatography) on reversed-phase columns (C 18), using the methods below:
# [b] The LC-MS determination in the acidic range is carried out at pH 2.7 using the mobile phases 0.1% aqueous formic acid and acetonitrile (contains 0.1% formic acid), linear gradient from 10% acetonitrile to 95% acetonitrile.
# [8] = logP by HPLC on reversed-phase columns (C 18), method [a], acidic range pH 2.3; type: physicochemical; conditions: pH 2.3, logP (pH2.3)
# Experimental: as §1
# [a] The determination is carried out in the acidic range at pH 2.3 using the mobile phases 0.1% aqueous phosphoric acid and acetonitrile, linear gradient from 10% acetonitrile to 95% acetonitrile.
# [9] = system: Sphaerotheca fuliginea; assay: Sphaerotheca test (cucumber) / protective; type: in vivo; conditions: Podosphaera fuliginea, 168 h, active compound concentration 500 ppm, evaluation 7 days after inoculation, read-out: efficacy
# Experimental: The plants are subsequently placed in a greenhouse at 70% relative atmospheric humidity and a temperature of 23° C.
# [10] = system: Pyricularia oryzae; assay: whole plant or invertebrate; type: in vivo; conditions: 120 h, read-out: efficacy
# [11] = system: Cochliobolus miyabeanus; assay: Cochliobolus test (rice) / protective; conditions: Bipolaris oryzae, in Oryza sativa, 96 h, read-out: efficacy
# Experimental: Cochliobolus Test (Rice)/Protective • Solvent: 28.5 parts by weight of acetone • Emulsifier: 1.5 parts by weight of alkylaryl polyglycol ether
# 1 day after the treatment, the plants are inoculated with an aqueous spore suspension of Cochliobolus miyabeanus. The plants are then placed in a greenhouse at 100% relative atmospheric humidity and 25° C.
# Evaluation is carried out 4 days after the inoculation.
# [12] = logP by LC-MS on reversed-phase columns (C 18), method [c], neutral range pH 7.8; type: physicochemical; conditions: pH 7.8
# Experimental: as §1
# [c] The LC-MS determination in the neutral range is carried out at pH 7.8 using the mobile phases 0.001 molar aqueous ammonium bicarbonate solution and acetonitrile, linear gradient from 10% acetonitrile to 95% acetonitrile.
# [13] = system: Rhizoctonia solani; assay: Rhizoctonia test (rice) / protective; type: in vivo; conditions: 96 h, active compound concentration 250 ppm, evaluation 4 days after inoculation, read-out: efficacy
# [14] = system: Fusarium graminearum; assay: microbe, parasite or virus in culture; type: cell-based; conditions: 168 h, read-out: DON/AcDON-inhibitory activity
# [15] = growth, OD620 at the beginning and after 6 days, read-out: pI50 growth (converted)
Compound,chromatographic logP [1],pest or weed control at 100 ppm [2],pest or weed control at 100 ppm [3],pest or weed control at 500 ppm [4],pest or weed control at 500 ppm [5],IC50 ([6]; read-out: pI50 Fum),"IC50 [6, 15]",chromatographic logP [7],chromatographic logP [8],pest or weed control at 500 ppm [9],pest or weed control at 250 ppm [10],pest or weed control at 250 ppm [11],chromatographic logP [12],pest or weed control at 250 ppm [13],inhibition at 50 µM [14]
"CC(O)c1cccc(Nc2ncc(Cl)c(NC3CC3)n2)c1 (stereo not drawn) [Ic-IV-1, 1-(3-{[5-Chloro-4-(cyclopropylamino)pyrimidin-2-yl]amino}phenyl)ethanol]",1.25,–,–,–,–,–,–,–,–,–,–,–,–,–,–
CCSC(C)c1cccc(Nc2ncc(Br)c(NC3CCC3)n2)c1 (stereo not drawn) [Example 12],–,≥ 70%,≥ 70%,≥ 70%,≥ 70%,10 µM,> 50.1 µM,3.49,–,–,–,–,–,–,–
"CCS(=O)(=O)c1cccc(Nc2ncc(Cl)c(NC3CCC3)n2)c1 [Example 27, 5-chloro-N^4-cyclobutyl-N^2-[3-(ethylsulphonyl)phenyl]pyrimidine-2,4-diamine]",–,≥ 70%,≥ 70%,≥ 70%,–,2 µM,20 µM,2.21,2.21,≥ 70%,≥ 80%,≥ 80%,–,–,–
"COCC(C)Oc1ccc(Nc2ncc(Br)c(NC3CC3)n2)cc1 (stereo not drawn) [Example 1, 5-Bromo-N^4-cyclopropyl-N^2-{4-[(1-methoxypropan-2-yl)oxy]phenyl}pyrimidine-2,4-diamine]",–,≥ 70%,–,≥ 70%,–,1.26 µM,6.31 µM,1.83,1.83,–,–,–,–,–,–
COC(C)(C)Cc1cccc(Nc2ncc(Cl)c(NC3CC3)n2)c1 [Example 64],–,≥ 70%,≥ 70%,≥ 70%,≥ 70%,0.631 µM,5.01 µM,2.21,–,–,≥ 80%,–,3.81,–,–
COCc1cccc(Nc2ncc(C(F)(F)F)c(NC3CCC3)n2)c1 [Example 24],–,–,–,≥ 70%,≥ 70%,2 µM,7.94 µM,3.3,–,–,≥ 80%,–,–,≥ 80%,–
CCC(SC)c1cccc(Nc2ncc(C(F)(F)F)c(NC3CC3)n2)c1 (stereo not drawn) [Example 62],–,≥ 70%,≥ 70%,≥ 70%,–,15.8 µM,> 50.1 µM,4.23,–,≥ 70%,≥ 80%,≥ 80%,–,≥ 80%,–
"CC[S+]([O-])c1cccc(Nc2ncc(Cl)c(NC3CCC3)n2)c1 (stereo not drawn) [Example 28, 5-Chloro-N^4-cyclobutyl-N^2-[3-(ethylsulphinyl)phenyl]pyrimidine-2,4-diamine]",–,≥ 70%,≥ 70%,≥ 70%,≥ 70%,3.98 µM,20 µM,1.76,1.76,≥ 70%,≥ 80%,≥ 80%,–,≥ 80%,–
COCc1cccc(Nc2ncc(Cl)c(N(C)C3CC3)n2)c1 [Example 58],–,≥ 70%,–,≥ 70%,≥ 70%,–,–,2.7,–,≥ 70%,–,–,3.76,–,> 80%
COC(C)c1cccc(Nc2ncc(Br)c(NC3CCC3)n2)c1 (stereo not drawn) [Example 20],–,≥ 70%,≥ 70%,≥ 70%,≥ 70%,0.794 µM,3.98 µM,2.46,–,–,≥ 80%,≥ 80%,–,≥ 80%,–
COCC(O)c1cccc(Nc2ncc(C(F)(F)F)c(NC3CC3)n2)c1 (stereo not drawn) [Example 195],–,–,–,≥ 70%,≥ 70%,–,–,1.97,–,≥ 70%,≥ 80%,–,2.64,≥ 80%,> 80%
"CCC[S+]([O-])c1cccc(Nc2ncc(C(F)(F)F)c(Cl)n2)c1 (stereo not drawn) [Xb-1, 4-Chloro-N-[3-(propylsulphinyl)phenyl]-5-(trifluoromethyl)pyrimidin-2-amine]",1.76,–,–,–,–,–,–,–,–,–,–,–,–,–,–
COCCc1cccc(Nc2ncc(Cl)c(NC3CC3)n2)c1 [Example 60],–,≥ 70%,≥ 70%,≥ 70%,≥ 70%,0.631 µM,1.58 µM,2.41,–,≥ 70%,≥ 80%,≥ 80%,–,≥ 80%,–
"CCC(SC)c1cccc(Nc2ncc(Cl)c(NC3CC3)n2)c1 (stereo not drawn) [Example 61, 5-Chloro-N^4-cyclopropyl-N^2-{3-[1-(methylsulphanyl)propyl]phenyl}pyrimidine-2,4-diamine]",–,≥ 70%,≥ 70%,≥ 70%,–,–,–,2.94,2.59,≥ 70%,≥ 80%,–,–,≥ 80%,> 80%
COCc1cccc(Nc2ncc(Cl)c(NCCF)n2)c1 [Example 138],–,≥ 70%,≥ 70%,≥ 70%,≥ 70%,–,–,1.48,–,≥ 70%,≥ 80%,–,2.57,–,> 80%
COC(C)(C)c1cccc(Nc2ncc(Cl)c(NC3CC3)n2)c1 [Example 59],–,≥ 70%,≥ 70%,≥ 70%,≥ 70%,0.501 µM,3.16 µM,2.16,–,≥ 70%,≥ 80%,≥ 80%,3.5,≥ 80%,–
